In patent US20260355328A1, “A complex comprising a cargo and a targeting moiety binding intelectin-1” (Stichting Radboud universitair medisch centrum, priority 2022, published 2026):

How the values were obtained:
[1] = test system: heparan sulphate proteoglycans (HSPGs); details: HeLa cells, literature; cited from earlier work
[2] = Biodistribution of Cy5.5-hLF in LPS-induced inflammation mouse model; format: in vivo, C57BI/6 mice
Procedure: At the start, 8- to 10-week-old C57BI/6 mice (Charles River) received an intraperitoneal injection with either 100 μl of 2 mg/kg LPS in 5% glucose solution, or only 5% glucose solution. After 24 hours, mice were injected with 50 μl of 200 μM Cy5.5-labelled peptide. Assuming a blood volume of 1.2 ml this would theoretically result in a concentration of ~8.5 μM in the circulation. After 4 hours, organs were perfused with phosphate buffer, followed by 4% PFA. Organs were removed and peptide distribution was analysed using the In Vivo Imaging System (IVIS; Perkin Elmer). Organs were then fixed by overnight incubation in 4% PFA, followed by overnight incubation in 30% sucrose. Subsequently, organs were frozen for analysis by confocal laser-Scanning microscopy using a TCS SP5 confocal microscope (Leica Microsystems). Glomerular and tubular regions were selected in microscopical pictures from which the mean fluorescence intensity was determined by ImageJ software.

EOMA = assay: Uptake in multiple cell lines (Table 2): EOMA; format: cell-based; details: fluorescein-labeled peptide, confocal microscopy, EOMA (mouse)
HUVEC = assay: Uptake in multiple cell lines (Table 2): HUVEC; format: cell-based; details: fluorescein-labeled peptide, confocal microscopy, HUVEC (human)
HeLa cells = assay: Uptake of fluorescein-labelled peptides by HeLa cells (flow cytometry); format: cell-based, human; details: FIG. 1B
Procedure: (§1) Conditionally immortalized mouse glomerular endothelial cells (mGEnC) were cultured as previously described (Rops et al. Kidney Int. 2004; 66 (6): 2193-201). HeLa cells were employed as a frequently used model cell line and were cultured in DMEM/F12 medium containing 10% fetal calf serum (FCS). For studying uptake, cells were incubated in their respective medium with 10% FCS containing fluorescein-labelled peptides at the indicated concentrations for 20 minutes at 37 °C. In some cases, cells were activated for 16 hours with 10 ng/ml mouse TNFα (Sigma), or co-incubated with Alexa Fluor 633-labeled transferrin (Invitrogen Molecular Probes). Subsequently, cells were washed with PBS and analysed using confocal laser-scanning microscopy on a TCS SP5 confocal microscope (Leica Microsystems), or detached by trypsin/EDTA and analysed on a FACSCalibur Flow cytometer (BD Biosciences) by measuring 20,000 cells.

[3] = test system: heparan sulphate on mGEnC; assay: Peptide uptake by mGEnC after removal of heparan sulphate (heparinases); format: cell-based, mouse; details: 5 μM, FIG. 1D
Procedure: (D) Digestion of heparan sulphate from the cell surface has a limited effect on the uptake of lactoferrin-derived peptides (5 μM). Percentage of uptake for heparan sulphate-cleaved compared to undigested cells is shown.
as §1
In order to further substantiate that uptake of hLF occurred by a mechanism different of the one typically observed for CPPs, we addressed the role of heparan sulphate proteoglycans (HSPGs).

hGEnC = assay: Uptake in multiple cell lines (Table 2): hGEnC; format: cell-based; details: fluorescein-labeled peptide, confocal microscopy, hGEnC (human)
[4] = Proteolytic breakdown and serum protein binding of the peptides; format: in vitro ADME
[5] = test system: mouse glomerular endothelial cells (mGEnC); assay: Uptake of fluorescein-labelled peptides by mGEnC (flow cytometry); format: cell-based; details: different concentrations, 20 minutes at 37 °C, FIG. 1A
Procedure: as §1

ITLN-1 [6] = biological target: T1, ITLN-1 (Mus musculus, UniProt O88310); assay: Uptake by mGEnC after downregulation of ITLN-1 with siRNA; format: cell-based; details: peptides at 5 μM, FIG. 2E
T1 construct: ITLN-1 siRNA versus control siRNA
T1 sequence (O88310 19-298): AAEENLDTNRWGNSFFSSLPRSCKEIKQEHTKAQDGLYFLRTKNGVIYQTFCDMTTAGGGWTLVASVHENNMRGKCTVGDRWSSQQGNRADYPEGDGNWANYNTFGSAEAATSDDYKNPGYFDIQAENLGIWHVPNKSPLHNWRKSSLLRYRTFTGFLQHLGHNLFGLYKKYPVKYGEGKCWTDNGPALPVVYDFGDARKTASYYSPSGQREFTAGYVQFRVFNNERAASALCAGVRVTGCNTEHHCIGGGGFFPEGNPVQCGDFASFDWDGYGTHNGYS
Procedure: (§2) Conditionally immortalized mouse glomerular endothelial cells (mGEnC) were cultured as previously described (Rops et al. Kidney Int. 2004; 66 (6): 2193-201). Cells were incubated in their respective medium with 10% FCS containing fluorescein-labelled peptides at 5 μM for 20 minutes at 37 °C. In some cases, cells were activated for 16 hours with 10 ng/ml mouse TNFα (Sigma), or co-incubated with 100 μg/ml Alexa Fluor 633-labeled transferrin (Invitrogen Molecular Probes). Pre-treatment with ITLN-1 or control siPool siRNA (siTools Biotech) was performed according to the manufacturer's protocol. Subsequently, cells were detached with trypsin/EDTA and analysed by flow cytometry on a FACSCalibur Flow cytometer (BD Biosciences). For immunostaining, cells or 5-μm cryosections of mouse kidney were fixed for 10 minutes with 4% paraformaldehyde, and in the indicated cases permeabilized with 0.3% Triton X-100 in PBS. Subsequently, cells and cryosections were stained for 1 hour with anti-intelectin-1 (R&D Systems) or anti-LRP-1 (Abcam) antibodies, and after washing incubated for 1 hour with the appropriate Alexa Fluor-labelled secondary antibody (Invitrogen Molecular Probes). Cells and cryosections were analyzed by confocal laser-Scanning microscopy was performed using a TCS SP5 confocal microscope (Leica Microsystems).

HeLa = assay: Uptake in multiple cell lines (Table 2): HeLa; format: cell-based; details: fluorescein-labeled peptide, confocal microscopy, HeLa (human)
Procedure: as §1
as §2, with “Subsequently, cells and cryosections were stained for 1 hour with anti-intelectin-1 (R&D Systems) or anti-LRP-1 (Abcam) antibodies, and after washing incubated for 1 hour with the appropriate Alexa Fluor-labelled secondary antibody (Invitrogen Molecular Probes).” left out

mGEnC [7] = assay: Uptake in multiple cell lines (Table 2): mGEnC; format: cell-based; details: fluorescein-labeled peptide, confocal microscopy, mGEnC (mouse)
Procedure: as §1
as §2, with “Subsequently, cells and cryosections were stained for 1 hour with anti-intelectin-1 (R&D Systems) or anti-LRP-1 (Abcam) antibodies, and after washing incubated for 1 hour with the appropriate Alexa Fluor-labelled secondary antibody (Invitrogen Molecular Probes).” left out

mGEnC [8] = assay: Intracellular localization / co-localization with transferrin in mGEnC (confocal microscopy); format: cell-based, mouse; details: FIG. 2C
Procedure: as §1
Conditionally immortalized mouse glomerular endothelial cells (mGEnC) were cultured as previously described (Rops et al. Kidney Int. 2004; 66 (6): 2193-201). […] Subsequently, cells were detached with trypsin/EDTA and analysed by flow cytometry on a FACSCalibur Flow cytometer (BD Biosciences). […] Cells and cryosections were analyzed by confocal laser-Scanning microscopy was performed using a TCS SP5 confocal microscope (Leica Microsystems).

mGEnC treated with TNFα = assay: Uptake by mGEnC after activation with TNFα; format: cell-based; details: 10 ng/ml mouse TNFα 16 hours
Procedure: as §1, §2

[9] = Biodistribution of 111In-DOTA-labelled hLF after intravenous injection in healthy mice; format: in vivo, C57BI/6 mice; details: i.v.
Procedure: Female and male 10-12-weeks-old C57BI/6 mice (Charles River) were injected via the tail vein with 50 μl of 200 μM 111 In-DOTA-labelled hLF peptide. Assuming a blood volume of 1.2 ml this would theoretically result in a concentration of ~8.5 μM in the circulation. Urine, blood and organs were collected 4 hours after injection, and radioactivity was measured in a gamma-counter. The percentage injected dose per gram of tissue (% ID/gram) was calculated for each tissue along with % of the absorbed dose.

Podocytes = assay: Uptake in multiple cell lines (Table 2): Podocytes; format: cell-based; details: fluorescein-labeled peptide, confocal microscopy, Podocytes (mouse)
Procedure: as §1
as §2, with “Subsequently, cells and cryosections were stained for 1 hour with anti-intelectin-1 (R&D Systems) or anti-LRP-1 (Abcam) antibodies, and after washing incubated for 1 hour with the appropriate Alexa Fluor-labelled secondary antibody (Invitrogen Molecular Probes).” left out

ITLN-1 [10] = biological target: T1, ITLN-1; assay: ITLN-1 protein expression in mGEnC; format: cell-based; details: 10 ng/ml TNFα, FIG. 2B
Procedure: as §2

[11] = test system: proteoglycans on endothelial and epithelial cells; details: literature; cited from earlier work
[12] = Biodistribution of full-length lactoferrin, lactoferricin and hLF-6 in LPS-challenged mice (IVIS); format: in vivo; details: fluorescent label, i.v., 2 h
Procedure: Lactoferrin and lactoferricin are cloned in an expression plasmid containing the C-terminal Sortase-sequence protein-LPETG-HHHHHH. LPETGHHHHHH is SEQ ID NO: 98. Next, the protein is expressed overnight in E. coli and purified from sonicated bacterial cell lysates by Ni-NTA beads using 400 mM imidazole to elute the proteins. After overnight dialysis, full-length lactoferrin and hLF-6 are labelled by means of a Sortase exchange reaction on the C-terminus with a fluorescent dye (Alexa647 or Cy5.5) for 2 h at 4 °C using a fluorescently labelled donor peptide (formula:biotin-GSSG-LPETG-label or biotin-GSSG-LPETG-PEG40k-label) as substrate GSSGLPETG is SEQ ID NO: 99. Excess donor peptide is removed by means of streptavidin binding of the biotin tag on the N-terminus of the donor peptide. Next, the purified labelled protein/peptide is injected into LPS-challenged mice via intravenous injection in the tail vein. Mice are sacrificed after 2 h, and organs harvested for imaging by IVIS. Biodistribution is quantified for each organ, and relative distribution is shown.

## KCFQWQRNMRKVRGPPVSCIKR [hLF, lactoferrin-derived 22-amino acid peptide]
[1]
  dependence of uptake on HSPG: depends on the presence of HSPG
[2]; IVIS, LPS-treated and non-treated mice
  signal in spleen, heart, eyes, brain and lymph nodes: virtually undetectable
[2]; i.v. injection in mice
  tubular uptake of non-conjugated / free peptide: tubular uptake
EOMA
  Uptake (Table 2): High
HUVEC
  Uptake (Table 2): High
HeLa cells
  uptake in HeLa cells: show uptake
[3]
  decrease in uptake after removal of heparan sulphate: ~ 20%
hGEnC
  Uptake (Table 2): High
[4]
  binding to serum proteins as reason for preferential uptake by mGEnC: not due to a difference in proteolytic breakdown of the peptides before uptake, or a difference in the binding to serum proteins
[4]; before uptake
  proteolytic breakdown as reason for preferential uptake by mGEnC: not due to a difference in proteolytic breakdown
[5]
  uptake in mGEnC: much more efficient dose-dependent uptake
ITLN-1 [6]
  uptake after ITLN-1 siRNA compared to control siRNA: reduced uptake
HeLa
  Uptake (Table 2): High
mGEnC [7]
  Uptake (Table 2): High
mGEnC [8]
  co-localization with fluorescently-labelled transferrin: co-localized completely
mGEnC treated with TNFα
  effect of TNFα treatment on uptake: increased uptake
mGEnC treated with TNFα; 5 μM, FIG. 1E
  increase of uptake after TNFα treatment: 50-100%
[9]; 111In-DOTA-labelled, 4 hours, FIG. 3A
  biodistribution (main organ): predominantly located in the kidney
[9]
  concentration in the blood after 4 hours: < 1%
[9]; 4 hours
  absorbed dose in kidney and liver combined of total dose in all the organs: more than 90%
  distribution to other organs including intestines, skin and heart, fold lower: more than 20 fold
  distribution to the liver, fold lower than kidney: approximately 2 fold
  kidney targeting, female versus male mice: No significant differences
  peptide concentration in spleen and lungs, fold lower than kidney: 5-10 fold
Podocytes
  Uptake (Table 2): High

## TNFα
ITLN-1 [10]
  ITLN-1 expression after activation: augmented ITLN-1 expression

## lactoferricin
[11]
  binding to proteoglycans: bind to proteoglycans on endothelial and epithelial cells
[12]
  bio-distribution: accumulation predominantly in liver and spleen and less in kidney, brain and intestine
